The target of one test is yeast Hsp90^273−709 (Saccharomyces cerevisiae, UniProt P02829). As to the kind of experiment: ITC binding to yeast Hsp90 273-709 (middle and C-terminal domain). As to conditions: for ΔH / ΔS: ITC, Yeast 273–709.
Test [1] has as its target T1, yeast Hsp90 (Saccharomyces cerevisiae, UniProt P02829). As to the kind of experiment: Hsp90 ATPase assay.
For test [2], the target named is human Hsp90α N-terminal domain (Hsp90^9−236) (Homo sapiens, UniProt P07900). As to the kind of experiment: ITC binding to human Hsp90α N-terminal domain. As to conditions: isolated N-terminal domain of human Hsp90α.
The next test concerns the target human Hsp90β (Homo sapiens, UniProt P08238). As to the kind of experiment: ITC binding to human full-length Hsp90β.
A further test concerns the target yeast Hsp90-ADP complex (Saccharomyces cerevisiae, UniProt P02829). As to the kind of experiment: ITC binding to yeast Hsp90-ADP complex.
The target in test [3] is T1, yeast Hsp90. Briefly: ITC binding to yeast full-length Hsp90.
The next test concerns Hsp90. As to the kind of experiment: Refolding of denatured luciferase in rabbit reticulocyte lysate. In kind it is biochemical.
Test [4] deals with Hsp90-AMPPNP-Sba1 complex (Saccharomyces cerevisiae, UniProt P02829). Briefly: ITC binding to Hsp90-AMPPNP-Sba1 complex.
Test [5] addresses yeast Hsp90–AMPPNP complex (Saccharomyces cerevisiae, UniProt P02829). Briefly: ITC binding to yeast Hsp90-AMPPNP complex.
A further test has as its target human Hsp90α (Homo sapiens, UniProt P07900). Briefly: ITC binding to human full-length Hsp90α.
Test [6] deals with T2, yeast Hsp90 N-terminal domain (Hsp90^1−220) (Saccharomyces cerevisiae, UniProt P02829).
T2 construct: Hsp90^1−220 (N-terminal domain); made in house
As to the kind of experiment: ITC binding to yeast Hsp90 N-terminal domain. Particulars: isolated N-terminal domain of yeast Hsp90.

For test [7], the target named is T1, yeast Hsp90. As to the kind of experiment: Citrate synthase aggregation assay.
In the next test the target is yeast Hsp90^546−709 (Saccharomyces cerevisiae, UniProt P02829). Briefly: ITC binding to yeast Hsp90 546-709 (C-terminal domain).
Test [8] relates to SH-SY5Y human neuroblastoma cell line. Also on record: method as in Kasza et al., 2016. As to conditions: ref Kasza et al., 2016; cited from earlier work.
The target of another test is Hsp90^1−560 (Saccharomyces cerevisiae, UniProt P02829). As to the kind of experiment: ITC binding to yeast Hsp90 1-560 (N and middle domain). Particulars: Hsp90 1−560, N- and middle-domain of yeast Hsp90.
Another test concerns the target human Hsp72 (Homo sapiens, UniProt P0DMV8). Briefly: ITC binding to human Hsp72. Particulars: 1 mM LA1011 into 60 μM human Hsp72.
Test [9] has as its system APPxPS1 transgenic mouse model of AD. Set-up: method as in Kasza et al., 2016. As to conditions: ref Kasza et al., 2016, cited from earlier work.
For the next test, the target named is yeast Hsp90-P661R (Saccharomyces cerevisiae, UniProt P02829, P661R). Briefly: ITC binding to yeast Hsp90 mutant P661R.
The target of test [10] is T1, yeast Hsp90. Set-up: pRSETA was used to express yeast full–length Hsp90; made in house; method as in Prodromou et al., 1999. Particulars: Sti1 to yeast Hsp90 without LA1011; ref Prodromou et al., 1999; cited from earlier work.
The mark [11] stands for this setting: 2 μM yeast Hsp90, non-inhibited turnover 1.2 per min.

Where two headings read alike, the source gives them in different places.

yeast Hsp90^546−709, sequence (P02829 546-709): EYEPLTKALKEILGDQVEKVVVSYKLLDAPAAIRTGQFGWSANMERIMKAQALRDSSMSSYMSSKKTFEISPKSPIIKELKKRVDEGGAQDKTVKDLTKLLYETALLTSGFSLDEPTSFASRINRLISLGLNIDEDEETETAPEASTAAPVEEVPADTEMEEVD
human Hsp90β, sequence (P08238 whole entry): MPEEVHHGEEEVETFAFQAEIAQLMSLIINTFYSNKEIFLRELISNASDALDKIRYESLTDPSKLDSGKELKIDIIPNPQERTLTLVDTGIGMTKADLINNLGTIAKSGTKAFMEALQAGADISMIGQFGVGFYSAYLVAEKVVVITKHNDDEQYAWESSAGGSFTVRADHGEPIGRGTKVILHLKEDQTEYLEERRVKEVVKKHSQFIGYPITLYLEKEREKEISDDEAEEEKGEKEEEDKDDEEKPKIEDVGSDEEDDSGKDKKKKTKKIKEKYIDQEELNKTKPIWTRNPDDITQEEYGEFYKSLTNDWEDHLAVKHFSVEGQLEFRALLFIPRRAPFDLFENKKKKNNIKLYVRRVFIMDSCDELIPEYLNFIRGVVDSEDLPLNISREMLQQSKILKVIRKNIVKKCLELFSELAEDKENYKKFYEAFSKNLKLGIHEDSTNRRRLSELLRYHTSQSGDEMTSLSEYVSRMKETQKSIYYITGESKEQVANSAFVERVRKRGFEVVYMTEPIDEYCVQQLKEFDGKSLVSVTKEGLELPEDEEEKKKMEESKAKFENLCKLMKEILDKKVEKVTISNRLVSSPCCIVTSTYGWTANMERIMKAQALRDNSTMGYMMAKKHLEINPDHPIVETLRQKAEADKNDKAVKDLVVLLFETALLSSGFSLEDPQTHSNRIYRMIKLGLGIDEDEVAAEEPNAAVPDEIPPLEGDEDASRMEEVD
yeast Hsp90^273−709, sequence (P02829 273-709): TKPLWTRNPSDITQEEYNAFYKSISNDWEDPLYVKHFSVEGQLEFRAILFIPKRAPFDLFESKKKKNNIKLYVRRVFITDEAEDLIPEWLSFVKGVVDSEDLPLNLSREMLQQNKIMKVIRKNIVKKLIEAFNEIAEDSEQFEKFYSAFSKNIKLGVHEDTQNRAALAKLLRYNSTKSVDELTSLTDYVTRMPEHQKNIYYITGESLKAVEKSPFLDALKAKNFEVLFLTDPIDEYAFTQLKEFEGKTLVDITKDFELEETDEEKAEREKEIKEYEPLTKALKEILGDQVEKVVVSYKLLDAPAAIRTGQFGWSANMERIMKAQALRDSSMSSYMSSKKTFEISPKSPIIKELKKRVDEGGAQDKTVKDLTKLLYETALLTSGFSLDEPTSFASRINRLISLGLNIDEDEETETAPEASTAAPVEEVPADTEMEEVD
T1 sequence (P02829 whole entry, the tested form may be a part): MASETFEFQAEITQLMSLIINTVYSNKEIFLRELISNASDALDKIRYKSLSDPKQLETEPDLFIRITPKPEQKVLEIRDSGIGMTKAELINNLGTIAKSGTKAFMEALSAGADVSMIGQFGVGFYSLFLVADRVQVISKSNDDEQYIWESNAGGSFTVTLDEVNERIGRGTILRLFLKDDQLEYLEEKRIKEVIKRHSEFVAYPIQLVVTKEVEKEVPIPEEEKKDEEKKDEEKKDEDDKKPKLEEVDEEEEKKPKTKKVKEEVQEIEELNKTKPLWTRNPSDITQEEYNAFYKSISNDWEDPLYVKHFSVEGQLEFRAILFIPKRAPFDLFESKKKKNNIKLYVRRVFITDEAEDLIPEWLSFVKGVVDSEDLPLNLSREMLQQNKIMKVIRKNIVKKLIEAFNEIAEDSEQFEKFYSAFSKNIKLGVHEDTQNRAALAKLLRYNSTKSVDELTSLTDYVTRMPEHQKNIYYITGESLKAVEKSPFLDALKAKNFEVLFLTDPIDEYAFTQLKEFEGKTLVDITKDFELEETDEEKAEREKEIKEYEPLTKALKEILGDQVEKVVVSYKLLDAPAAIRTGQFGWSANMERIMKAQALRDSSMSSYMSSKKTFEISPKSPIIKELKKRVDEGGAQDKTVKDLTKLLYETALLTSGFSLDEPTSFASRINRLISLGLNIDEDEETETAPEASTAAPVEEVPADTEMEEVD
yeast Hsp90–AMPPNP complex, sequence (P02829 whole entry, one chain of several): as the sequence (P02829 whole entry, the tested form may be a part) above
Hsp90^1−560, sequence (P02829 1-560): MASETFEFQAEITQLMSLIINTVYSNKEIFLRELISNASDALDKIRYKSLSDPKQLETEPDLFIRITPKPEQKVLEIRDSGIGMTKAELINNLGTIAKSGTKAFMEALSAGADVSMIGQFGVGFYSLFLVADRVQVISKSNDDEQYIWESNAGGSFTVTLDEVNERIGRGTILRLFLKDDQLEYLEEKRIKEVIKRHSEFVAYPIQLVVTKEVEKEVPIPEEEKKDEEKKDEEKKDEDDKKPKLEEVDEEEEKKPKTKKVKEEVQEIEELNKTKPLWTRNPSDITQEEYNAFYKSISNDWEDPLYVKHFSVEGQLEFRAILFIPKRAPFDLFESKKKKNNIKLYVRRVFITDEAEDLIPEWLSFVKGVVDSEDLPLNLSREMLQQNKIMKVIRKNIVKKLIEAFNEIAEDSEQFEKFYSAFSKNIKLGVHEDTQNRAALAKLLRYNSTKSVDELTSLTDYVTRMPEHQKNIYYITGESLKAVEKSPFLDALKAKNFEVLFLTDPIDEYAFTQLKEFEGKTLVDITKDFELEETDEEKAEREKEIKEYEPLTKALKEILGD
yeast Hsp90-P661R, sequence (P02829 whole entry, looked up, stated change not applied): as the sequence (P02829 whole entry, the tested form may be a part) above
T2 sequence (P02829 1-220): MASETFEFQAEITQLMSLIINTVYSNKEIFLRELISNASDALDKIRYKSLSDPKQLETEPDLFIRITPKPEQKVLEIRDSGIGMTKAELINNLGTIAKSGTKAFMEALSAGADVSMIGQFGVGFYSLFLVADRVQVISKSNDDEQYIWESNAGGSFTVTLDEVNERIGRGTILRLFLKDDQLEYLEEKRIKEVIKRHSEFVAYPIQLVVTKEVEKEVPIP
human Hsp72, sequence (P0DMV8 whole entry): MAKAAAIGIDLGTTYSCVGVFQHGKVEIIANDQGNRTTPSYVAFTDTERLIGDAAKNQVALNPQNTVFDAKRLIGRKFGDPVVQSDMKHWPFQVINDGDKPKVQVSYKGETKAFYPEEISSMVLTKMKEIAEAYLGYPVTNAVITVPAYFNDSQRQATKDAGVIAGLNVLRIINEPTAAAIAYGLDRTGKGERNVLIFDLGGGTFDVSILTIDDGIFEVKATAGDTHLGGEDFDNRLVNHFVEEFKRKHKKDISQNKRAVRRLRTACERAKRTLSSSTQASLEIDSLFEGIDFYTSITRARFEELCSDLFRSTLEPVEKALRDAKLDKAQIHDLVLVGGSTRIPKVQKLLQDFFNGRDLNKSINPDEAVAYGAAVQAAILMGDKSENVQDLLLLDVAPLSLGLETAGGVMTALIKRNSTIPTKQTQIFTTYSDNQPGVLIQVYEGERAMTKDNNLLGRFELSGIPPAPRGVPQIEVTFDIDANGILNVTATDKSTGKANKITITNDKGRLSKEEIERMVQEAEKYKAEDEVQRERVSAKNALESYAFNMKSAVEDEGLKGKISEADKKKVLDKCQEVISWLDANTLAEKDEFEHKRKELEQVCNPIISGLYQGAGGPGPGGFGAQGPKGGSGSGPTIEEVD

On yeast Hsp90^273−709, `COC(=O)C1=C(CCN(C)C)N(C)C(CCN(C)C)=C(C(=O)OC)C1c1cc(F)cc(F)c1` [LA1026] returned a Kd of 48.8 ± 4.7 µM, a ΔH of -1.233 ± 0.21 kcal/mol and a ΔS of 15.7 cal/mol/Deg. The “effect on ATPase activity of Hsp90” value at yeast Hsp90 [1] (setting [11]) was “activated the ATPase activity”.

As to `COC(=O)C1=C(CCN(C)C)N(C)C(CCN(C)C)=C(C(=O)OC)C1c1ccc(C(F)(F)F)cc1` [LA1011], the binding entry in test [2] is listed as “failed to bind”; in [6], “failed to bind”; on Hsp90^1−560, “failed to bind”; at human Hsp72 it was “did not interact”. The Kd at human Hsp90β is 9.7 ± 0.7 µM; at yeast Hsp90-ADP complex, 66.2 ± 29.7 µM; on yeast Hsp90^273−709 it was 9.7 ± 0.7 µM; at yeast Hsp90 [3] it was 13.5 ± 0.9 µM; in test [4] it was 23.1 ± 1.9 µM; in [5], 66.2 ± 21.4 µM. Besides, the Kd on human Hsp90α amounted to 3.8 ± 0.7 µM; at yeast Hsp90^546−709, 60.6 ± 7.9 µM; on yeast Hsp90-P661R it was 80.6 ± 19 µM. Also, the ΔH on human Hsp90β (ITC, Hsp90β) was -0.6549 ± 0.0435 kcal/mol; on yeast Hsp90^273−709, -5.11 ± 0.187 kcal/mol; on yeast Hsp90 [3] (ITC, Yeast Hsp90), -4.863 ± 0.194 kcal/mol; at human Hsp90α (ITC, Hsp90α), -0.792 ± 0.0807 kcal/mol; at yeast Hsp90^546−709 (ITC, Yeast 546–709), -2.603 ± 0.706 kcal/mol. Further, the ΔS at human Hsp90β (ITC, Hsp90β) is 20.8 cal/mol/Deg; on yeast Hsp90^273−709, 6.07 cal/mol/Deg; at yeast Hsp90 [3] (ITC, Yeast Hsp90), 6.24 cal/mol/Deg; at human Hsp90α (ITC, Hsp90α), 22.2 cal/mol/Deg; on yeast Hsp90^546−709 (ITC, Yeast 546–709), 10.7 cal/mol/Deg. Besides, the “N (stoichiometry)” value is on record as 0.27 on human Hsp90β (ITC, human Hsp90β); 0.53 at yeast Hsp90 [3] (ITC, Yeast Hsp90); 0.35 at human Hsp90α (ITC, human Hsp90α). In addition, the “LA1011 required to achieve 88% occupancy” value came out at 100 µM on yeast Hsp90 [3] (in the absence of ATP) and 0.5 mM in test [5] (in the presence of ATP). In addition, the “effect on ATPase activity of Hsp90” value was “activated the ATPase activity” at yeast Hsp90 [1] (setting [11]) and “marginal effects” on yeast Hsp90 [1] (10 μM LA1011). On yeast Hsp90 [1] (240 μM LA1011), the “stimulation of the ATPase” value is recorded as 2 fold. Besides, the “inhibition of luciferase refolding” value with Hsp90 (1 mM LA1011, rabbit reticulocyte lysate) is “around 50%”. The refolding of luciferase entry in the test with Hsp90 (5 mM LA1011, rabbit reticulocyte lysate) is recorded as “completely prevented refolding of luciferase”. In addition, the “disruption of Hsp90's ability to protect citrate synthase from aggregation” value on yeast Hsp90 [7] (0.1–0.2 mM LA1011, 600 nM Hsp90, 45°C) was “around 50%”. For the same compound, the fractional occupancy at yeast Hsp90 [7] (calculated as [ligand]/[ligand]+Kd, Kd 13 μM, at 0.1–0.2 mM LA1011) is given as 88–93%. Further, in test [8], the “heat shock protein co-induction” value was “co-inducers of Hsp70 and Hsp27”. Moreover, the neuroprotective effect result in test [9] (APPxPS1 transgenic mouse model of AD) is “could protect neurons in the hippocampus, could decrease Tau-accumulation and was able to preserve dendritic spines”. For the same compound, the “levels that had an effect in mouse models” value in [9] (mouse models) is 5 to 10 µM.

In the case of `COC1=C2C[C@@H](C)C[C@H](OC)[C@H](O)[C@@H](C)/C=C(\C)[C@H](OC(N)=O)[C@@H](OC)/C=C\C=C(/C)C(=O)NC(=CC1=O)C2=O` [geldanamycin, reference compound], the “effect on ATPase activity of Hsp90” value at yeast Hsp90 [1] (setting [11]) is “inhibition of Hsp90 ATPase activity”.

On yeast Hsp90^273−709, `COC(=O)C1=C(C)N(C)C(CCN2CCOCC2)=C(C(=O)OC)C1c1ccc(C(F)(F)F)cc1` (stereo not drawn) [LA1014] registered a Kd of 20.2 ± 3 µM, a ΔH of -0.8714 ± 0.145 kcal/mol and a ΔS of 18.6 cal/mol/Deg. Also, the “effect on ATPase activity of Hsp90” value at yeast Hsp90 [1] (setting [11]) is “activated the ATPase activity”.

Regarding Sti1: yeast co-chaperone of Hsp90, in the test with yeast Hsp90 [10], the Kd is 0.33 ± 0.03 µM.

As usually defined, the Kd is the concentration at which binding is half-saturated.

Source of the values: article PMC6000670, “Dihydropyridines Allosterically Modulate Hsp90 Providing a Novel Mechanism for Heat Shock Protein Co-induction and Neuroprotection” (Frontiers in Molecular Biosciences, 2018).
